Results from patent publication US5817640A (Gensia Pharmaceuticals, priority 1995, dated 1998).

Tested on: patients undergoing coronary artery bypass graft (CABG) surgery
Assay: Transmural and non-transmural myocardial infarction, CK-MB and CK release, clinical outcomes (Phase 2)
Assay type: in vivo, human
Conditions: for Number of patients developing transmural myocardial infarction (new Q-wave and CK-MB ≥ 50 I.U.): placebo 5 of 37; for Number of patients with non-transmural myocardial infarction (CK-MB ≥ 50 I.U.): placebo 17
Experimental: Creatinine phosphokinase MB band (CK-MB) was obtained every 8 hours for 48 hours and when indicated. Radio-nuclide ventriculography for ejection fraction and wall motion score was done about 14 days post-operation and as close to hospital discharge as possible. Other tests and measurements (e.g., chest x-ray, pulmonary artery wedge pressure (PCWP) were performed when clinically indicated for diagnosis or evaluation of myocardial infarction, or congestive heart failure. Timing and dose of all cardiovascular medications within 48 hours after surgery were recorded. The total dose of all analgesics during the 24-hour post-operative period was recorded. Fluid intake and output (e.g., blood replacement and urine output) were recorded for 48 hours. The type and duration of inotropic support and antiarrhythmic intervention required were recorded through 24 hours after surgery. Two-channel Holter recordings were obtained during 3 periods, the eight hours prior to intubation, from intubation through the end of surgery, and for an additional 24-48 hours after surgery. […] For the diagnosis of myocardial infarction, ECG tracings and CK-MB values were assessed centrally by observers blinded to treatment. The difficulty of weaning the patient from bypass, if any, was compared between placebo and treatment groups by noting need for one or more of the following: pacemaker, return to bypass, balloon pump or use of vasopressors. 4. Clinical Outcome. Outcomes of cardiac death, MI, CHF and life-threatening dysrhythmia were compared. Specific endpoints for analysis were combined into a dichotomous endpoint, i.e., at least one of the four events listed above occurs versus none occurs. Fisher's exact test for small samples was used to compare the rates of clinical outcome between the three treatment groups. […] Blood Chemistry--CPK, CK-MB, uric acid, glucose.

[1] = 0.05 mg/kg/min, n=41, ICU + 8 HR
[2] = 0.05 mg/kg/min, n=41, ICU + 16 HR
[3] = 0.05 mg/kg/min, n=41, ICU + 32 HR
[4] = 0.05 mg/kg/min, n=41, ICU + 40 HR
[5] = 0.05 mg/kg/min, n=41, ICU + 48 HR
[6] = 0.05 mg/kg/min, n=41, discharge
[7] = 0.10 mg/kg/min, n=35, ICU + 8 HR
[8] = 0.10 mg/kg/min, n=35, ICU + 16 HR
[9] = 0.10 mg/kg/min, n=35, ICU + 32 HR
[10] = 0.10 mg/kg/min, n=35, ICU + 40 HR
[11] = 0.10 mg/kg/min, n=35, ICU + 48 HR
[12] = 0.10 mg/kg/min, n=35, discharge

In the case of NC(=O)c1ncn([C@@H]2O[C@H](CO)[C@@H](O)[C@H]2O)c1N [AICA riboside, 5-amino-1-β-D-ribofuranosyl-imidazole-4-carboxamide], the “CK, mean baseline” value (0.05 mg/kg/min group, n=41) was 89.2 +/- 30.9 U/L, the “CK-MB, mean baseline” value (0.05 mg/kg/min group, n=41) was 0.2 +/- 0.1 U/L and the “CK-MB, mean change from baseline” value (0.05 mg/kg/min, n=41, 24 HR POST) was 23.5 +/- 5.0 U/L. The “CK, mean change from baseline” value (0.05 mg/kg/min, n=41, ICU + 0) was 346.2 +/- 45.3 U/L, the “CK-MB, mean change from baseline” value (0.05 mg/kg/min, n=41, ICU + 0) was 24.5 +/- 2.7 U/L and the “CK, mean change from baseline” value [1] was 839.2 +/- 89.3 U/L. For the same compound, the “CK-MB, mean change from baseline” value [1] was 37.1 +/- 5.1 U/L, the “CK, mean change from baseline” value [2] was 1040.6 +/- 120.3 U/L and the “CK-MB, mean change from baseline” value [2] was 30.8 +/- 4.9 U/L. The “CK, mean change from baseline” value [3] was 874.7 +/- 126.3 U/L, the “CK-MB, mean change from baseline” value [3] was 9.2 +/- 2.5 U/L and the “CK, mean change from baseline” value [4] was 806.6 +/- 145.6 U/L. For the same compound, the “CK-MB, mean change from baseline” value [4] was 7.7 +/- 2.2 U/L, the “CK, mean change from baseline” value [5] was 784.0 +/- 149.9 U/L and the “CK-MB, mean change from baseline” value [5] was 3.9 +/- 1.5 U/L. The “CK, mean change from baseline” value [6] was 87.8 +/- 46.6 U/L, the “CK-MB, mean change from baseline” value [6] was 0.0 +/- 0.1 U/L and the “Number of patients developing transmural myocardial infarction (new Q-wave and CK-MB ≥ 50 I.U.)” value (0.05 mg/kg/min, n=41, p=0.42) was 2 patients. The “Number of patients with non-transmural myocardial infarction (CK-MB ≥ 50 I.U.)” value (0.05 mg/kg/min, n=41, p=0.10) was 13 patients, the “Incidence of transmural myocardial infarction” value (0.05 mg/kg/min, n=41, placebo […], p=0.42) was 4.9% and the “CK, mean baseline” value (0.10 mg/kg/min group, n=35) was 66.6 +/- 11.3 U/L. The “CK-MB, mean baseline” value (0.10 mg/kg/min group, n=35) was 0.1 +/- 0.1 U/L, the “CK-MB, mean change from baseline” value (0.10 mg/kg/min, n=35, 24 HR POST) was 21.1 +/- 5.3 U/L and the “CK, mean change from baseline” value (0.10 mg/kg/min, n=35, ICU + 0) was 386.1 +/- 51.8 U/L. For the same compound, the “CK-MB, mean change from baseline” value (0.10 mg/kg/min, n=35, ICU + 0) was 25.2 +/- 2.3 U/L, the “CK, mean change from baseline” value [7] was 869.6 +/- 143.7 U/L and the “CK-MB, mean change from baseline” value [7] was 34.3 +/- 6.2 U/L. The “CK, mean change from baseline” value [8] was 891.0 +/- 148.3 U/L, the “CK-MB, mean change from baseline” value [8] was 25.9 +/- 6.7 U/L and the “CK, mean change from baseline” value [9] was 894.0 +/- 142.9 U/L. For the same compound, the “CK-MB, mean change from baseline” value [9] was 12.8 +/- 4.5 U/L, the “CK, mean change from baseline” value [10] was 641.7 +/- 119.7 U/L and the “CK-MB, mean change from baseline” value [10] was 7.1 +/- 3.0 U/L. For the same compound, the “CK, mean change from baseline” value [11] was 499.8 +/- 100.5 U/L, the “CK-MB, mean change from baseline” value [11] was 3.5 +/- 2.1 U/L and the “CK, mean change from baseline” value [12] was 31.9 +/- 22.0 U/L. The “CK-MB, mean change from baseline” value [12] was 0.4 +/- 0.4 U/L, the “Number of patients developing transmural myocardial infarction (new Q-wave and CK-MB ≥ 50 I.U.)” value (0.10 mg/kg/min, n=35, p=0.42) was 2 patients and the “Non-transmural MI, combined treatment groups versus placebo” value (0.05 + 0.1 mg/kg/min combined, p=0.046) was “statistically significant”. For the same compound, the “Number of patients with non-transmural myocardial infarction (CK-MB ≥ 50 I.U.)” value (high dose (0.1 mg/kg/min; Table 6 head prints 0.01), n=35, p=0.10) was 8 patients, the “Incidence of non-transmural myocardial infarction (CK-MB ≥ 50 I.U.)” value (high dose (0.1 mg/kg/min; Table 6 head prints 0.01), n=35, placebo 47%, p=0.10) was 23.5% and the “Rate of perioperative infarction, all drug-treated patients vs placebo” value (including first 5 which received higher doses, p<0.05) was “statistically significant reduction”. For the same compound, the “Other outcomes (CHF requiring balloon pump or LVAD, cardiac death, life-threatening arrhythmia)” value (three groups, exception patient A39 (intra-aortic balloon pump)) was “none of the other outcomes being evaluated”, the “Total CK levels compared with placebo; same trend for CK-MB release” value (treated groups, across all patients) was “trend toward a reduction in total CK levels in the treated groups compared with placebo” and the “Reduction in the frequency of post-operative myocardial infarctions” value (treatment groups vs placebo, p=0.15, not significant) was 64%.
